Measured values taken from US20240043444A1, “METHODS FOR TREATING SPINOCEREBELLAR ATAXIA TYPE 3” (PTC Therapeutics, Inc., priority 2021, published 2024).

Tests used:
[1] = test system: Endogenous Total ATXN3 (tATXN3) Protein; experiment: Endogenous Total ATXN3 (tATXN3) Protein Assay (MSD immunoassay of cell lysates); format: cell-based; settings: cells incubated with compound 48 h; 7-point concentration curve; MSD plate readout
Description: Meso Scale Discovery (MSD) 96-well or 384-well plates were coated overnight at 4° C. with Ataxin 3 mouse monoclonal antibody (Invitrogen, MA3-082) at a concentration of […] in PBS (30 μL per well). Plates were then washed three times with 300 μL wash buffer (0.05% TWEEN®-20, polyethylene glycol sorbitan monolaurate, in PBS) and blocked (Meso Scale Diagnostics, R93BA-1; 5% BSA in PBS) for 2 h at room temperature with rotational shaking and then washed three times with wash buffer.
(§1) Test compounds were serially diluted 3.16-fold in 100% DMSO to generate a 7-point concentration curve. Aliquots of 0.5 μL of diluted compounds were transferred to a 96-well flat bottom plate by a liquid handler. An aliquot of 0.5 μL DMSO was also transferred to separate wells and used as controls. Duplicate samples were set up for each compound concentration and for the DMSO control.
Cells were thawed and incubated in cell culture media (DMEM, 10% FBS, and 1% antibiotic cocktail) for 72 h. Cells were trypsinized, counted, and re-suspended to a concentration of 100,000 cells/mL in cell culture media. A 100 μL aliquot of the cell suspensions were plated at 10,000 cells per well in the compound containing 96 well microtiter plate and incubated for in a cell culture incubator (37° C., 5% CO2, 100% relative humidity). After 48 h, the medium was removed and 50-100 μL of lysis buffer (Meso Scale Diagnostics, R60TX-2) containing 1× halt protease inhibitor cocktail of (Thermo Scientific, Halt™ Protease Inhibitor Cocktail, 78430) per well was added to cells to provide a “cell lysate”. The plate was placed on a shaker at 4° C. for 30 minutes, then stored at −80° C.
Cell lysate samples (25 μL) were transferred to the antibody-coated MSD plate and incubated overnight at 4° C. After removal of the lysates, the plate was washed three times with wash buffer, and 25 μL of Ataxin 3 recombinant rabbit monoclonal antibody (Invitrogen, #702788) secondary antibody (diluted to 0.25 μg/mL in 0.05% TWEEN®-20 in blocking buffer) was added to each well and incubated with shaking for 1-2 h at room temperature. Following incubation with the secondary antibody, the wells were rinsed with wash buffer and then 25 μL of Anti Rabbit Antibody Goat SULFO-TAG Labeled (Meso Scale Diagnostics, R32AB-1) detecting antibody (diluted to 0.25 μg/mL in 0.05% TWEEN®-20 in blocking buffer) was added to each well and incubated with shaking for 1 h at room temperature. After rinsing three times with wash buffer, 150 μL of Read Buffer T with surfactant (tris-based buffer containing tripropylamine, Meso Scale Diagnostics, R92TC-1) were added to each empty well, and the plate was imaged on a SI 6000 imager (MSD) according to manufacturers' instructions provided for 96- or 384-well plates.

[2] = test system: ATXN3 Pre-mRNA (exon 4 skipping); experiment: RT-qPCR Assay to Quantify Exon 4 Skipping in ATXN3 Pre-mRNA in Cells; format: cell-based; settings: cells incubated with compound 24 h, normalised to GAPDH, 7-point concentration curve
Description: as §1
Cells were thawed and incubated in cell culture media (DMEM, 10% FBS, and 1% antibiotic cocktail) for 72 h. Cells were trypsinized, counted, and re-suspended to a concentration of 100,000 cells/mL in cell culture media. A 100 μL aliquot of the cell suspensions were plated at 10,000 cells per well in the compound containing 96 well microtiter plate and incubated for in a cell culture incubator (37° C., 5% CO2, 100% relative humidity).
After 24 h, media was aspirated from the cells and 50 μL of the RCL2 lysis buffer (10 mM Tris-HCL pH 7.4, 150 mM NaCl, 0.33% IGEPAL® CA-630) was added to each well and incubated at room temperature for 1 min. Chilled nuclease free water (50 μL per well) was added and the plates were immediately transferred on ice. After 1 min on ice, plates were frozen at −80° C. overnight.
Preparation of RT-qPCR Reaction Mixture:
An aliquot of 2 μL/well of the cell lysates was transferred using the liquid handler to the Armadillo 384-Well PCR plate containing 8 μL/well of the RT-qPCR reaction mixture that was prepared as detailed above. The plates were then sealed with MicroAmp™ Optical Adhesive Film followed by spinning down for 1 min and placed in the CFX384 thermocycler (BioRad).
The RT-qPCR was carried out at the following temperatures for the indicated time: • Step 1: 48° C. (30 min) • Step 2: 95° C. (10 min) • Step 3: 95° C. (15 sec) • Step 4: 60° C. (1 min); then, repeated Steps 3 and 4 for a total of 40 cycles.
The percent exon 4 skipping was calculated for each dose of compound treatment using Equations 1 and 2.
Data were fit to a dose response curve and the IC50 was interpolated using XLfit® statistical and curve fitting package.
An IC50 value between >2.0 μM and ≤3.0 μM is indicated by one star (*). […] IC50 value between >0.5 μM and ≤1.0 μM is indicated by four stars (****). An IC50 value ≤0.5 μM is indicated by five stars (*****).

IC50 (average, total ATXN3 protein) [1] | Compound | IC50 [1] [nM] | IC50 [2] [nM] | IC50 (exon 4 skipping in ATXN3 pre-mRNA) [2]
 | CC(C)[C@H](N)Cc1cc2nc(Cl)nc(NCc3ccco3)c2s1 [Cpd 5, 6-[(2R)-2-amino-3-methylbutyl]-2-chloro-N-[(furan-2-yl)methyl]thieno[3,2-d]pyrimidin-4-amine] | ≤ 500 | 500 to 1000 | 
inactive | CC(C)(C)[C@H](N)Cc1cc2nc(Cl)nc(NCc3ccco3)c2s1 [Cpd 7, 6-[(2R)-2-amino-3,3-dimethylbutyl]-2-chloro-N-[(furan-2-yl)methyl]thieno[3,2-d]pyrimidin-4-amine] |  |  | inactive
 | Cc1c(C[C@H](C)N)sc2c(NCc3ccco3)nc(Cl)nc12 [Cpd 12, 6-[(2S)-2-aminopropyl]-2-chloro-N-[(furan-2-yl)methyl]-7-methylthieno[3,2-d]pyrimidin-4-amine] | ≤ 500 | ≤ 500 | 
 | Cc1nc(NCc2ccco2)c2sc(C[C@H](C)N)c(C)c2n1 [Cpd 15, 6-[(2S)-2-aminopropyl]-N-[(furan-2-yl)methyl]-2,7-dimethylthieno[3,2-d]pyrimidin-4-amine] | 500 to 1000 | ≤ 500 | 
inactive | Cc1csc2c(NCc3ccncc3)nc(Cl)nc12 [Cpd 23, 2-chloro-7-methyl-N-[(pyridin-4-yl)methyl]thieno[3,2-d]pyrimidin-4-amine] |  |  | inactive
 | Cc1ccc(CNc2nc(Cl)nc3c(C)c(C[C@H](C)N)sc23)o1 [Cpd 24, 6-[(2S)-2-aminopropyl]-2-chloro-7-methyl-N-[(5-methylfuran-2-yl)methyl]thieno[3,2-d]pyrimidin-4-amine] | > 2000 | 1500 to 2000 | 
 | Cc1c(C[C@H](C)N)sc2c(NCc3cccs3)nc(Cl)nc12 [Cpd 28, 6-[(2S)-2-aminopropyl]-2-chloro-7-methyl-N-[(thiophen-2-yl)methyl]thieno[3,2-d]pyrimidin-4-amine] | ≤ 500 | ≤ 500 | 
 | Cc1c(C[C@H](C)N)sc2c(NCc3nccs3)nc(Cl)nc12 [Cpd 29, 6-[(2S)-2-aminopropyl]-2-chloro-7-methyl-N-[(1,3-thiazol-2-yl)methyl]thieno[3,2-d]pyrimidin-4-amine] | ≤ 500 | ≤ 500 | 
 | Cc1ccoc1CNc1nc(Cl)nc2c(C)c(C[C@H](C)N)sc12 [Cpd 30, 6-[(2S)-2-aminopropyl]-2-chloro-7-methyl-N-[(3-methylfuran-2-yl)methyl]thieno[3,2-d]pyrimidin-4-amine] | 1500 to 2000 | 1000 to 1500 | 
 | Cc1cnc(CNc2nc(Cl)nc3c(C)c(C[C@H](C)N)sc23)s1 [Cpd 31, 6-[(2S)-2-aminopropyl]-2-chloro-7-methyl-N-[(5-methyl-1,3-thiazol-2-yl)methyl]thieno[3,2-d]pyrimidin-4-amine] | > 2000 | 2000 to 3000 | 
 | Cc1c(C[C@H](C)N)sc2c(NCc3ccc(F)s3)nc(Cl)nc12 [Cpd 33, 6-[(2S)-2-aminopropyl]-2-chloro-N-[(5-fluorothiophen-2-yl)methyl]-7-methylthieno[3,2-d]pyrimidin-4-amine] | ≤ 500 | ≤ 500 | 
 | Cc1c(C[C@H](C)N)sc2c(NCc3ccncc3F)nc(Cl)nc12 [Cpd 35, 6-[(2S)-2-aminopropyl]-2-chloro-N-[(3-fluoropyridin-4-yl)methyl]-7-methylthieno[3,2-d]pyrimidin-4-amine] | ≤ 500 | ≤ 500 | 
 | Cc1c(C[C@H](C)N)sc2c(NCc3ccco3)nc(Br)nc12 [Cpd 38, 6-[(2S)-2-aminopropyl]-2-bromo-N-[(furan-2-yl)methyl]-7-methylthieno[3,2-d]pyrimidin-4-amine] | ≤ 500 | ≤ 500 | 
 | Cc1c(C[C@H](C)N)sc2c(NCc3ccno3)nc(Cl)nc12 [Cpd 39, 6-[(2S)-2-aminopropyl]-2-chloro-7-methyl-N-[(1,2-oxazol-5-yl)methyl]thieno[3,2-d]pyrimidin-4-amine] | ≤ 500 | ≤ 500 | 
 | C[C@H](N)Cc1sc2c(NCc3ccco3)nc(Cl)nc2c1Br [Cpd 40, 6-[(2S)-2-aminopropyl]-7-bromo-2-chloro-N-[(furan-2-yl)methyl]thieno[3,2-d]pyrimidin-4-amine] | ≤ 500 | ≤ 500 | 
inactive | Cc1c([C@H](C)N)sc2c(NCc3ccco3)nc(Cl)nc12 [Cpd 47, 6-[(1S)-1-aminoethyl]-2-chloro-N-[(furan-2-yl)methyl]-7-methylthieno[3,2-d]pyrimidin-4-amine] |  |  | inactive
 | Cc1c(C[C@@H](N)CCF)sc2c(NCc3ccco3)nc(Cl)nc12 [Cpd 51, 6-[(2S)-2-amino-4-fluorobutyl]-2-chloro-N-[(furan-2-yl)methyl]-7-methylthieno[3,2-d]pyrimidin-4-amine] | ≤ 500 | ≤ 500 | 
 | Cc1c(C[C@@H]2CCOC(=O)N2)sc2c(NCc3ccco3)nc(Cl)nc12 [Cpd 52, (4S)-4-[(2-chloro-4-{[(furan-2-yl)methyl]amino}-7-methylthieno[3,2-d]pyrimidin-6-yl)methyl]-1,3-oxazinan-2-one] | > 2000 |  | inactive
 | Cc1c(C[C@H](C)N)sc2c(NCc3ncccn3)nc(Cl)nc12 [Cpd 55, 6-[(2S)-2-aminopropyl]-2-chloro-7-methyl-N-[(pyrimidin-2-yl)methyl]thieno[3,2-d]pyrimidin-4-amine] | > 2000 | 2000 to 3000 | 
 | Cc1c(C[C@@H](N)CO)sc2c(NCc3cccs3)nc(Cl)nc12 [Cpd 56, (2R)-2-amino-3-(2-chloro-7-methyl-4-{[(thiophen-2-yl)methyl]amino}thieno[3,2-d]pyrimidin-6-yl)propan-1-ol] | ≤ 500 | ≤ 500 | 
inactive | Cc1c(C2CCNC2)sc2c(NCc3ccco3)nc(Cl)nc12 (stereo not drawn) [Cpd 57, 2-chloro-N-[(furan-2-yl)methyl]-7-methyl-6-(pyrrolidin-3-yl)thieno[3,2-d]pyrimidin-4-amine] |  |  | inactive
 | Cc1c(C[C@H](C)N)sc2c(NCc3ncccc3F)nc(Cl)nc12 [Cpd 59, 6-[(2S)-2-aminopropyl]-2-chloro-N-[(3-fluoropyridin-2-yl)methyl]-7-methylthieno[3,2-d]pyrimidin-4-amine] | 1500 to 2000 | 1000 to 1500 | 
 | Cc1c(C[C@H](C)N)sc2c(NCc3cccnc3F)nc(Cl)nc12 [Cpd 60, 6-[(2S)-2-aminopropyl]-2-chloro-N-[(2-fluoropyridin-3-yl)methyl]-7-methylthieno[3,2-d]pyrimidin-4-amine] | > 2000 | 2000 to 3000 | 

Compound | IC50 (average, total ATXN3 protein) [1] | IC50 [1] [nM] | IC50 [2] [nM] | IC50 (exon 4 skipping in ATXN3 pre-mRNA) [2]
Cc1csc(CNc2nc(Cl)nc3c(C)c(C[C@H](C)N)sc23)n1 [Cpd 27, 6-[(2S)-2-aminopropyl]-2-chloro-7-methyl-N-[(4-methyl-1,3-thiazol-2-yl)methyl]thieno[3,2-d]pyrimidin-4-amine] | inactive |  | 2000 to 3000 | 
